By pKa is commonly meant the pH at which an ionisable group is half protonated.

This data set can be described thus: pKa value by 1H NMR spectroscopy. The data set is classed as physicochemical.
For the compound `CCOC(=O)CC(CC(=O)OCC)n1ccnc1`, the pKa came to 6.45.
Then `c1c[nH]cn1` [IMIDAZOLE], with 7.14; and `CCOC(=O)CC(C(=O)OCC)n1ccnc1` (centres undefined), with 6.02.
In turn, `CCOC(=O)C(C(=O)OCC)n1ccnc1` registered a pKa of 5.02.
As to `COC(=O)Cn1ccnc1`, the pKa turned out to be 7.1.
`O=C(O)CC(C(=O)O)n1ccnc1` (centres undefined): the pKa came to 7.32.
Then `O=C(O)CC(CC(=O)O)n1ccnc1`, with 7.37; and `O=C(O)Cn1ccnc1`, with 7.23.
Then `CCOC(=O)CC(C(=O)O)n1ccnc1` (centres undefined), with 6.86.

The record behind these values is ChEMBL document CHEMBL1150497, “Imidazol-1-ylalkanoate esters and their corresponding acids. A novel series of extrinsic 1H NMR probes for intracellular pH” (Bioorg Med Chem Lett, 1992).
